# In ChEMBL document CHEMBL3244322, “5-O-Alkylated derivatives of 5-hydroxy-2'-deoxyuridine as potential antiviral agents. Anti-herpes activity of 5-propynyloxy-2'-deoxyuridine” (J Med Chem, 1978):
# Test system: Vaccinia virus
# Assay: Antiviral activity against Vaccinia virus infected in human skin fibroblasts primed with interferon and superinduced with cyclohexamide and actinomycin D assessed as inhibition of virus-induced cytopathogenicity
# Assay type: functional
# Settings: Orthopoxvirus vaccinia
row,SMILES,MIC [µM]
1,C=CCOc1cn([C@@H]2O[C@H](CO)[C@@H](O)[C@H]2O)c(=O)[nH]c1=O,> 600
2,O=c1[nH]c(=O)n([C@@H]2O[C@H](CO)[C@@H](O)[C@H]2O)cc1OCc1ccc([N+](=O)[O-])cc1,> 600
3,C=CCOc1cn([C@H]2C[C@H](O)[C@@H](CO)O2)c(=O)[nH]c1=O,350
4,O=c1[nH]c(=O)n([C@H]2C[C@H](O)[C@@H](CO)O2)cc1OCc1ccccc1,> 600
5,NC(=O)COc1cn([C@H]2C[C@H](O)[C@@H](CO)O2)c(=O)[nH]c1=O,130
6,Nc1ncnc2c1ncn2[C@@H]1O[C@H](CO)[C@@H](O)[C@@H]1O [VIDARABINE],26
7,C#CCOc1cn([C@H]2C[C@H](O)[C@@H](CO)O2)c(=O)[nH]c1=O,140
8,O=c1[nH]c(=O)n([C@@H]2O[C@H](CO)[C@@H](O)[C@H]2O)cc1OCc1ccccc1,> 600
9,O=c1[nH]c(=O)n([C@H]2C[C@H](O)[C@@H](CO)O2)cc1OCc1ccc([N+](=O)[O-])cc1,> 520
10,O=c1[nH]c(=O)n([C@H]2C[C@H](O)[C@@H](CO)O2)cc1I [IDOXURIDINE],1.4
11,O=c1[nH]c(=O)n([C@H]2C[C@H](O)[C@@H](CO)O2)cc1O,40
12,NC(=O)COc1cn([C@@H]2O[C@H](CO)[C@@H](O)[C@H]2O)c(=O)[nH]c1=O,> 600
13,Cc1ccc(COc2cn([C@@H]3O[C@H](CO)[C@@H](O)[C@H]3O)c(=O)[nH]c2=O)cc1,> 600
